Measured values: US10947289B2, “Glyco-modified atrial natriuretic peptide” (priority 2013, dated 2021)
Where two headings read alike, the source gives them in different places.

Columns and labels:
[1] = Detection of test substance in rat plasma by LC-MS/MS (Test Example 3); assay type: in vivo; conditions: rat plasma, 100 nmol/kg i.v., LC-MS/MS; time at which the test substance was finally detected
Procedure: Before the administration and 15, 30, 60, 90, 120, 180, and 240 minutes after the administration, blood was sampled (200 μL/sampling) over time from the jugular vein. The blood samples were immediately left on ice.
The collected blood samples were centrifuged at 5000 rpm at 4° C. for 5 minutes by use of a centrifuge (Sigma 4K15, rotor: Nr12130-H). The separated plasma samples were divided into two types (samples for PK measurement and for cGMP measurement) and stored at −80° C. until measurement.
An internal standard (20 μL (500 nM) of a stable isotope of hANP) and an acetic acid mixed solvent (AcOH/distilled water/DMSO=5/3/2, v/v/v) were added to 50 μL of each rat plasma sample prepared in (1) and then mixed therewith. The mixture was transferred to Amicon Ultra-0.5 50K (Millipore Corp., MA) and centrifuged at 14000 rpm at 15° C. for 30 minutes. The obtained filtrate was transferred to Amicon Ultra-0.5 3K (Millipore Corp., MA) and centrifuged again under the aforementioned conditions. The solution remaining on the filter was recovered and transferred to a 96-well deep well plate. The content of the test substance was measured by LC-MS/MS (LC: Shimadzu LC-10ADVP (Shimadzu Corp.), MS/MS: API 4000 QTrap (AB SCIEX)) to calculate the concentration in plasma. The time at which the test substance was finally detected is shown in the rightmost column of Table 2.

human GC-A = biological target: T1, human GC-A (Homo sapiens, UniProt P16066); experiment: cGMP elevating activity in CHO/human GC-A cells (Test Example 1); assay type: cell-based; conditions: for Emax: maximum T/C in range 0.01-100 nM, solvent only = 0, 1 nM ANP = 1
T1 construct: expressed in transfected cells; host or cells: CHO cells
T1 sequence (P16066 33-1061): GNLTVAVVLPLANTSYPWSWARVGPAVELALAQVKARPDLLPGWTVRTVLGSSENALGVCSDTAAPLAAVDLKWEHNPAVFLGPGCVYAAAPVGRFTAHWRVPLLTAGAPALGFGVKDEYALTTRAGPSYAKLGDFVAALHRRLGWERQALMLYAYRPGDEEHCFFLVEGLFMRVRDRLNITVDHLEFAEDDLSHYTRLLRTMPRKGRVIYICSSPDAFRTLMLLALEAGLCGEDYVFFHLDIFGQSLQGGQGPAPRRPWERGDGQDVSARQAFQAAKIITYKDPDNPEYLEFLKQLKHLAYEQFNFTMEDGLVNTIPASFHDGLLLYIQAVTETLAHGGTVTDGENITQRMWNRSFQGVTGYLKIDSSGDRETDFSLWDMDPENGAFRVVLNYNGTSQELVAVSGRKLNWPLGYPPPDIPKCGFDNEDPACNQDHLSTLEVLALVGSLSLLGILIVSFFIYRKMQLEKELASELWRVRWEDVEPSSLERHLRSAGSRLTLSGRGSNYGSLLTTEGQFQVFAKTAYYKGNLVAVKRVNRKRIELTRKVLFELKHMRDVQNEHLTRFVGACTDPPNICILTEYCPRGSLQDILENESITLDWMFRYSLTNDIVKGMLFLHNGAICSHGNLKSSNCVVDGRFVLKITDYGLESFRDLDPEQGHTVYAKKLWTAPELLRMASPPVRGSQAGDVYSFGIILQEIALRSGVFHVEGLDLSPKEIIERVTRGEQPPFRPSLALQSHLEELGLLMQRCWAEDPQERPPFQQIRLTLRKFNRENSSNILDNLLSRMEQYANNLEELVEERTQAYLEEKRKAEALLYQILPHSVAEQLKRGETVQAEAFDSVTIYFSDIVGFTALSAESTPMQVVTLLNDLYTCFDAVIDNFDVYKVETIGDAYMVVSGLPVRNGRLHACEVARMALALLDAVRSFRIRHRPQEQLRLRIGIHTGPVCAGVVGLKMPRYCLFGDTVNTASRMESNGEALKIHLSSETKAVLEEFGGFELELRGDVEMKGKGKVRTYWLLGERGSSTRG
Summary of the method: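 cGMP in lysates was read by HTRF after a 15 min peptide exposure of GC-A-expressing CHO cells in a CO2 incubator, following 10 min room-temperature preincubation with 1.6 mM IBMX in KRB. T/C values were normalised between solvent wells (0) and 1 nM ANP wells (1).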

[2] = CHO/human GC-A cells, concentration at T/C=0.5, 15 minutes incubation, read-out: EC50

Row | Compound | Maximum time of detection after administration [1] | EC50 (human GC-A) | EC50 (human GC-A; [2]) | Emax (human GC-A)
1 | CC[C@H](C)[C@@H]1NC(=O)[C@H](CCCNC(=N)N)NC(=O)[C@H](CC(=O)O)NC(=O)[C@H](CCSC)NC(=O)[C@H](CCCNC(=N)N)NC(=O)CNC(=O)CNC(=O)[C@H](Cc2ccccc2)NC(=O)[C@@H](NC(=O)[C@H](CO)NC(=O)[C@H](CO)NC(=O)[C@H](CCCNC(=N)N)NC(=O)[C@H](CCCNC(=N)N)NC(=O)[C@H](CC(C)C)NC(=O)[C@H](CO)NC(=O)CO[C@@H]2O[C@H](CO)[C@@H](O[C@@H]3O[C@H](CO)[C@@H](O[C@@H]4O[C@H](CO[C@H]5O[C@H](CO)[C@@H](O)[C@H](O)[C@@H]5O[C@@H]5O[C@H](CO)[C@@H](O[C@@H]6O[C@H](CO[C@]7(C(=O)O)C[C@H](O)[C@@H](NC(C)=O)[C@H]([C@H](O)[C@H](O)CO)O7)[C@H](O)[C@H](O)[C@H]6O)[C@H](O)[C@H]5NC(C)=O)[C@@H](O)[C@H](O[C@H]5O[C@H](CO)[C@@H](O)[C@H](O)[C@@H]5O[C@@H]5O[C@H](CO)[C@@H](O[C@@H]6O[C@H](CO[C@]7(C(=O)O)C[C@H](O)[C@@H](NC(C)=O)[C@H]([C@H](O)[C@H](O)CO)O7)[C@H](O)[C@H](O)[C@H]6O)[C@H](O)[C@H]5NC(C)=O)[C@@H]4O)[C@H](O)[C@H]3NC(C)=O)[C@H](O)[C@H]2NC(C)=O)CSSC[C@@H](C(=O)N[C@@H](CC(N)=O)C(=O)N[C@@H](CO)C(=O)N[C@@H](Cc2ccccc2)C(=O)N[C@@H](CCCNC(=N)N)C(=O)N[C@@H](Cc2ccc(O)cc2)C(=O)O)NC(=O)CNC(=O)[C@H](CC(C)C)NC(=O)CNC(=O)[C@H](CO)NC(=O)[C@H](CCC(N)=O)NC(=O)[C@H](C)NC(=O)CNC1=O [Compound 2-1, SG-hANP(1-28)] | 3 h | – | – | –
2 | CC[C@H](C)[C@@H]1NC(=O)[C@H](CCCNC(=N)N)NC(=O)[C@H](CC(=O)O)NC(=O)[C@H](CCSC)NC(=O)[C@H](CCCNC(=N)N)NC(=O)CNC(=O)CNC(=O)[C@H](Cc2ccccc2)NC(=O)[C@@H](NC(=O)[C@H](CO)NC(=O)[C@H](CO)NC(=O)[C@H](CCCNC(=N)N)NC(=O)[C@H](CCCNC(=N)N)NC(=O)[C@H](CC(C)C)NC(=O)[C@H](CO)NC(=O)CNC(=O)[C@H](CO)NC(=O)CNC(=O)[C@H](CO)NC(=O)CNC(=O)[C@H](CO)NC(=O)[C@H](CC(=O)N[C@@H]2O[C@H](CO)[C@@H](O[C@@H]3O[C@H](CO)[C@@H](O[C@@H]4O[C@H](CO[C@H]5O[C@H](CO)[C@@H](O)[C@H](O)[C@@H]5O[C@@H]5O[C@H](CO)[C@@H](O[C@@H]6O[C@H](CO[C@]7(C(=O)O)C[C@H](O)[C@@H](NC(C)=O)[C@H]([C@H](O)[C@H](O)CO)O7)[C@H](O)[C@H](O)[C@H]6O)[C@H](O)[C@H]5NC(C)=O)[C@@H](O)[C@H](O[C@H]5O[C@H](CO)[C@@H](O)[C@H](O)[C@@H]5O[C@@H]5O[C@H](CO)[C@@H](O[C@@H]6O[C@H](CO[C@]7(C(=O)O)C[C@H](O)[C@@H](NC(C)=O)[C@H]([C@H](O)[C@H](O)CO)O7)[C@H](O)[C@H](O)[C@H]6O)[C@H](O)[C@H]5NC(C)=O)[C@@H]4O)[C@H](O)[C@H]3NC(C)=O)[C@H](O)[C@H]2NC(C)=O)NC(=O)CO[C@@H]2O[C@H](CO)[C@@H](O[C@@H]3O[C@H](CO)[C@@H](O[C@@H]4O[C@H](CO[C@H]5O[C@H](CO)[C@@H](O)[C@H](O)[C@@H]5O[C@@H]5O[C@H](CO)[C@@H](O[C@@H]6O[C@H](CO[C@]7(C(=O)O)C[C@H](O)[C@@H](NC(C)=O)[C@H]([C@H](O)[C@H](O)CO)O7)[C@H](O)[C@H](O)[C@H]6O)[C@H](O)[C@H]5NC(C)=O)[C@@H](O)[C@H](O[C@H]5O[C@H](CO)[C@@H](O)[C@H](O)[C@@H]5O[C@@H]5O[C@H](CO)[C@@H](O[C@@H]6O[C@H](CO[C@]7(C(=O)O)C[C@H](O)[C@@H](NC(C)=O)[C@H]([C@H](O)[C@H](O)CO)O7)[C@H](O)[C@H](O)[C@H]6O)[C@H](O)[C@H]5NC(C)=O)[C@@H]4O)[C@H](O)[C@H]3NC(C)=O)[C@H](O)[C@H]2NC(C)=O)CSSC[C@@H](C(=O)N[C@@H](CC(N)=O)C(=O)N[C@@H](CO)C(=O)N[C@@H](Cc2ccccc2)C(=O)N[C@@H](CCCNC(=N)N)C(=O)N[C@@H](Cc2ccc(O)cc2)C(=O)O)NC(=O)CNC(=O)[C@H](CC(C)C)NC(=O)CNC(=O)[C@H](CO)NC(=O)[C@H](CCC(N)=O)NC(=O)[C@H](C)NC(=O)CNC1=O [Compound 2-36, SG-(SG-)Asn-(Ser-Gly)3-hANP(1-28)] | – | 0.39 nM | – | –
3 | CC[C@H](C)[C@@H]1NC(=O)[C@H](CCCNC(=N)N)NC(=O)[C@H](CC(=O)O)NC(=O)[C@H](CCSC)NC(=O)[C@H](CCCNC(=N)N)NC(=O)CNC(=O)CNC(=O)[C@H](Cc2ccccc2)NC(=O)[C@@H](NC(=O)[C@H](CO)NC(=O)[C@H](CO)NC(=O)[C@H](CCCNC(=N)N)NC(=O)[C@H](CCCNC(=N)N)NC(=O)[C@H](CC(C)C)NC(=O)[C@H](CO)NC(=O)CNC(=O)CO[C@@H]2O[C@H](CO)[C@@H](O[C@@H]3O[C@H](CO)[C@@H](O[C@@H]4O[C@H](CO[C@H]5O[C@H](CO)[C@@H](O)[C@H](O)[C@@H]5O[C@@H]5O[C@H](CO)[C@@H](O[C@@H]6O[C@H](CO[C@]7(C(=O)O)C[C@H](O)[C@@H](NC(C)=O)[C@H]([C@H](O)[C@H](O)CO)O7)[C@H](O)[C@H](O)[C@H]6O)[C@H](O)[C@H]5NC(C)=O)[C@@H](O)[C@H](O[C@H]5O[C@H](CO)[C@@H](O)[C@H](O)[C@@H]5O[C@@H]5O[C@H](CO)[C@@H](O[C@@H]6O[C@H](CO[C@]7(C(=O)O)C[C@H](O)[C@@H](NC(C)=O)[C@H]([C@H](O)[C@H](O)CO)O7)[C@H](O)[C@H](O)[C@H]6O)[C@H](O)[C@H]5NC(C)=O)[C@@H]4O)[C@H](O)[C@H]3NC(C)=O)[C@H](O)[C@H]2O)CSSC[C@@H](C(=O)N[C@@H](CC(N)=O)C(=O)N[C@@H](CO)C(=O)N[C@@H](Cc2ccccc2)C(=O)N[C@@H](CCCNC(=N)N)C(=O)N[C@@H](Cc2ccc(O)cc2)C(=O)O)NC(=O)CNC(=O)[C@H](CC(C)C)NC(=O)CNC(=O)[C@H](CO)NC(=O)[C@H](CCC(N)=O)NC(=O)[C@H](C)NC(=O)CNC1=O [Compound 2-40, SG(Glc)-Gly-A-hANP(1-28)] | – | 0.05 nM | – | –
4 | SG2-(SG2-)Lys-[SG2-(SG2-)-Lys-]Lys-PEG(3)-hANP(1-28) [Compound 2-20] | – | – | 64 nM | 0.59
5 | [(SG2-)Cys-Gly]5-hANP(1-28) [Compound 2-18] | – | – | 48 nM | 0.63
6 | [(SG-)Cys-Gly]5-hANP(1-28) [Compound 2-17] | – | – | 35 nM | 0.70
